Assay results reported in the RepoRT retention time repository.

Assay: Agilent ZORBAX 300 SB-C18, 150 × 1 mm, 3.5 µm; A: water + 0.01% heptafluorobutyric acid; B: acetonitrile + 0.01% heptafluorobutyric acid; gradient (min/%B) 0/0 100/90
Conditions: stereoisomer not certain

Point of comparison: `CN(C)c1ccc(N)cc1`, LC retention time 6.86 min. Against it:
- COC(=O)c1ccc(NC(=O)CC(=O)Nc2ccc(C(=O)OC)cc2)cc1 — 1.8-fold higher, 12.2 min
- CCCNC(C)C(=O)Nc1c(C)csc1C(=O)OC (stereo not given) — within 1.5-fold, 9.27 min
- C=CN1CCCC1=O — within 1.5-fold, 7.85 min
- CCc1c(C)nc2c(O)cccn2c1=O — within 1.5-fold, 8.76 min
- S=c1[nH]ccc2ccccc12 — within 1.5-fold, 9.61 min
- CC(C)(C)c1ccc(-c2nc3ccccc3s2)cc1 — 3.1-fold higher, 21.3 min
- N=C(N)N=Nc1ccc(O)cc1 — within 1.5-fold, 7.38 min
- Nc1cccc(-c2cc3ccccc3oc2=O)c1 — 1.5-fold higher, 10.4 min
- CNCCCc1cc(C)ccc1O — within 1.5-fold, 8.44 min
- NCCCCCCCCN — within 1.5-fold, 7.2 min
- CC(=O)C=C(N)c1ccccc1 — 1.5-fold higher, 10.4 min
- CN(C)c1ccc(C=NNC(=O)C(c2ccccc2)c2ccccc2)cc1 — 2.2-fold higher, 15.4 min
- CN(C)C(=O)Nc1ccccc1 — within 1.5-fold, 8.37 min
- CN(C)C(=N)N(C)C — within 1.5-fold, 6.49 min
- COc1ccccc1OCC(=O)N1CCNC1=O — within 1.5-fold, 8.89 min
- CCCOC(=O)CCNc1n[nH]c(=O)[nH]c1=O — within 1.5-fold, 8.44 min
- CCOC(=O)c1ccc(Nc2c(N)c(=O)oc3ccccc23)cc1 — 2-fold higher, 14 min
- COC(=O)c1ccccc1NCc1ccccc1CNc1ccccc1C(=O)OC — 3-fold higher, 20.7 min
- NCC(O)CO (stereo not given) — 2.5-fold lower, 2.77 min
- S=c1nccc(-c2ccc3ccccc3c2)[nH]1 — 1.5-fold higher, 10.6 min
- Cc1ccc2[nH]c(-c3cc[n+](C)cc3)cc2c1 — within 1.5-fold, 9.82 min
- Cc1cc(C)c2[nH]c3c(c2c1)CCCC3=O — 2.2-fold higher, 14.8 min
- CC(C)CN(CC(C)C)CC(C)C — within 1.5-fold, 9.7 min
- S=c1[nH]c2ccccc2c2c1CCC2 — 1.8-fold higher, 12.1 min
- Cc1ccc(NC(=O)c2c(C)[nH]c(C)c2C)c(C)c1 — 1.9-fold higher, 13.2 min
- Nc1ccc(N2CCCC2=O)cc1 — within 1.5-fold, 7.31 min
- Cc1ccc(-c2cc(-c3ccc(C)cc3)on2)cc1 — 2.7-fold higher, 18.8 min
- COc1ccccc1-n1c(=O)[nH][nH]c1=O — within 1.5-fold, 6.75 min
- c1nc[nH]n1 — 3.6-fold lower, 1.93 min
- CCc1ncc[nH]1 — within 1.5-fold, 6.1 min
- CN(C)CCCOc1nn(Cc2ccccc2)c2ccccc12 — 1.6-fold higher, 11.2 min
- Cc1[nH]c(C)c(C(=O)c2ccccc2)c1C — 1.8-fold higher, 12.5 min
- NC(=O)c1ccccc1NC(=O)c1cc2c(n(-c3ccccc3)c1=O)CCCC2=O — 1.5-fold higher, 10.5 min
- O=C1c2ccccc2C(O)(c2ccccc2)N1C(c1ccccc1)c1ccccc1 (stereo not given) — 2.4-fold higher, 16.8 min
- CC1(C)CC(O)N=C1c1ccccc1 (stereo not given) — within 1.5-fold, 8.25 min
- CCCCC(N)=O — the same, 6.86 min
- CC(=O)c1[nH]c2c(c1C)C(=O)CCC2 — within 1.5-fold, 8.48 min
- COC(=O)C(c1ccccc1)C1CCCCN1 (stereo not given) — within 1.5-fold, 9.49 min
- c1ccc(N2CCN(c3ccccc3)C2c2cccnc2)cc1 — 1.9-fold higher, 13 min
- Cc1cc(C)c(CO)cc1C=NNC(N)=O — within 1.5-fold, 8.66 min
- Cc1cccc(NC(=O)C(Cc2c[nH]c3ccccc23)NC(=O)C(c2ccccc2)c2ccccc2)c1 (stereo not given) — 2.4-fold higher, 16.8 min
- CC(=O)Oc1cccc(C(=O)NN2C(=O)c3ccccc3C2=O)c1 — 1.6-fold higher, 11.1 min
- c1ccc(-c2cc(N3CCCCC3)c3ccccc3n2)cc1 — 1.7-fold higher, 12 min
- CCCCCCCCCCCN — 1.8-fold higher, 12.2 min
- O=C(c1cccc(C(=O)N(Cc2ccccc2)c2ccccn2)c1)N(Cc1ccccc1)c1ccccn1 — 2.2-fold higher, 15.4 min
- CCCCCn1c(CCC)nc2ccccc21 — 1.6-fold higher, 11.3 min
- C#CC(C)(CC)NC(=O)C(=Cc1ccccc1)NC(=O)c1ccccc1 (stereo not given) — 2-fold higher, 13.5 min
- CC(NC(=O)c1ccc(CN2CCc3ccccc3C2)cc1)c1ccccc1 (stereo not given) — 1.5-fold higher, 10.5 min
- OC(Cc1c[nH]c2ccccc12)(c1ccccc1)c1ccccc1 — 2.3-fold higher, 16.1 min
- CN1CCC(=O)C2CCCCC21 (stereo not given) — within 1.5-fold, 7.15 min
- C=Cc1ccccn1 — within 1.5-fold, 6.97 min
- Nc1ccc(N2CCCC2=O)cc1N1CCCC1=O — within 1.5-fold, 7.63 min
- c1ccc(-n2c3c(c4ccccc42)CCCC3)cc1 — 3.1-fold higher, 21.2 min
- C(=Cc1ccco1)C=NN1CCN(Cc2cccc3ccccc23)CC1 — 1.6-fold higher, 11.2 min
- CN1C2CC(OC(=O)C(CO)c3ccccc3)CC1C1OC12 (stereo not given) — within 1.5-fold, 8.47 min
- COC(=O)Cn1c(C)cc(C)c(N)c1=O — within 1.5-fold, 7.8 min
- CC(Nc1ccc2ccccc2c1)C(=O)NN=Cc1cccc2ccccc12 (stereo not given) — 2.4-fold higher, 16.7 min
- C=CCNC1(c2ccccc2)CCCCC1 — within 1.5-fold, 9.71 min
- COC(=O)c1ccccc1-c1cc(C(=O)OC)c2ccccc2n1 — 2.2-fold higher, 15 min
- CN(N)c1nc(N2CCCC2)nc(N2CCCC2)n1 — 1.5-fold higher, 10.3 min
- Nc1ccccc1NC(=O)Nc1ccccc1N — within 1.5-fold, 8.05 min
- CN1CCC23CCCCC2C1Cc1ccc(O)cc13 (stereo not given) — within 1.5-fold, 9.18 min
- O=Cc1c(-c2ccccc2)[nH]c2ccccc12 — 1.9-fold higher, 12.7 min
- C#CC(C)(C)NC(=O)CCCCCN1C(=O)c2ccccc2C1=O — 1.8-fold higher, 12.2 min
- CC1=NN(Cc2c[nH]c3ccccc23)C(C)(C)C1 — within 1.5-fold, 9.37 min
- S=C(NCc1ccccc1)Nc1cccc2ccccc12 — 2.1-fold higher, 14.4 min
- CCOC(=O)c1ccc(NC(=O)N2CCCC2)cc1 — 1.7-fold higher, 11.6 min
- CC1CCN(C(=O)C2CCCNC2)CC1 (stereo not given) — within 1.5-fold, 8.27 min
- CC(C)(C)NCCNC(C)(C)C — within 1.5-fold, 7.46 min
- CC(C)c1ccc(N)cc1 — within 1.5-fold, 9 min
- Cc1ccc(-c2cc(C)c(C)cc2C)nc1 — 1.5-fold higher, 10.6 min
- Cc1cc(C)cc(-c2nnc(-c3ccc(-c4ccccc4)cc3)o2)c1 — 3-fold higher, 20.5 min
- CC(=O)Nc1ccccn1 — within 1.5-fold, 6.5 min
- O=C(NN=Cc1cccnc1)c1ccccn1 — within 1.5-fold, 7.9 min
- COC(=O)Cn1c(=O)n(C)c2c(=O)n(C)c(=O)n(C)c21 — within 1.5-fold, 8.93 min
- C=CCN1CCNCC1 — within 1.5-fold, 7.39 min
- CCCCNC(=O)c1c[nH]c2ccccc2c1=O — 1.9-fold higher, 12.9 min
- CCC1(c2ccccc2)C(=O)NC(=O)N(C)C1=O (stereo not given) — 1.6-fold higher, 11.3 min
- Cc1cccnc1C — within 1.5-fold, 6.67 min
- CCc1ccccn1 — within 1.5-fold, 6.68 min
- NC(=O)C(N)c1ccccc1 (stereo not given) — within 1.5-fold, 6.56 min
- CC(C)(C)NCC(O)COc1cccc2c1CCC(=O)N2 (stereo not given) — within 1.5-fold, 8.4 min
- CCCCCCCCCC(=O)NCCCCC(=O)O — 2-fold higher, 13.5 min
- CCN(CC)C(=O)c1cc(NC(=O)c2ccc3c(c2)c(=O)n(C)c(=O)n3C)c(OC)c(OC)c1 — 1.7-fold higher, 11.7 min
- C=CCOc1ccccc1OCC(O)CNC(C)C (stereo not given) — within 1.5-fold, 9.94 min
- CC(C)c1ncc[nH]1 — within 1.5-fold, 6.64 min
- O=c1c2ccccc2nnn1Cc1ccncc1 — within 1.5-fold, 8.31 min
- c1ccc(Nc2ncnc3nc[nH]c23)cc1 — within 1.5-fold, 8.8 min
- Cc1ccccc1-n1c(O)c(C=C2C=Nc3ccccc32)c(=O)n(-c2ccccc2C)c1=O — 2.3-fold higher, 15.9 min
- Cc1cn(C2CC(O)C(CO)O2)c(=O)[nH]c1=O (stereo not given) — within 1.5-fold, 8.97 min
- CCCCCCCCCCCCC(N)=O — 2.7-fold higher, 18.2 min
- C=CCC1(Nc2ccccc2)CCCCC1 — 1.6-fold higher, 11.3 min
- N=C(N=C(N)N)N1CCOCC1 — within 1.5-fold, 6.32 min
- NC(=S)NN=C1CCCC1 — within 1.5-fold, 8 min
- CC(=O)Nc1ccc(NC(=O)CCC(=O)O)cc1 — within 1.5-fold, 6.9 min
- O=C1C(=Cc2cccs2)CCCC1=Cc1cccs1 — 2.7-fold higher, 18.5 min
- Nc1cccc(N)n1 — within 1.5-fold, 6.11 min
- O=Cc1c(-c2ccccc2)c(C=O)n2ccccc12 — 2-fold higher, 13.9 min
- C#CCN(CC)CC#C — within 1.5-fold, 6.73 min
- Cc1ccc2ccc3ccc(C)nc3c2n1 — within 1.5-fold, 8.67 min
- NCc1ccncc1 — within 1.5-fold, 6.44 min
- NC(=O)N1CCC(CCCC2CCN(C(N)=O)CC2)CC1 — within 1.5-fold, 9.11 min
- O=c1[nH]c(N=NCc2c[nH]c3ccccc23)nnc1-c1ccccc1 — 1.7-fold higher, 11.8 min
- CC(COc1ccccc1)NC(C)C(O)c1ccc(O)cc1 (stereo not given) — within 1.5-fold, 9.89 min
- CCn1c(C)cc(C=O)c1C — within 1.5-fold, 9.93 min
- NCc1ccccc1C(=O)O — within 1.5-fold, 7 min
- COc1cccc2c1NC(CCc1ccccc1N)CC2 (stereo not given) — 1.8-fold higher, 12.1 min
- Nc1ncc2[nH]cnc2n1 — within 1.5-fold, 5.52 min
- CCC(C)C1(CC)C(=O)NC(=O)NC1=O (stereo not given) — within 1.5-fold, 9.71 min
- COc1cccc(OCCN)c1 — within 1.5-fold, 8.13 min
- Cc1cc(C)c2c(=O)n(CC(=O)NCCCc3ccccc3)c(=O)n(C)c2n1 — 2.1-fold higher, 14.1 min
- CC(=O)Nc1cc(NC(C)=O)c(C)c(C(=O)O)c1 — within 1.5-fold, 6.32 min
- Cc1c(-c2ccccc2)cc(-c2ccccc2)nc1-c1ccccc1 — 2.8-fold higher, 19.2 min
- COc1cc(Cc2cnc(N)nc2N)cc(OC)c1OC — within 1.5-fold, 8.69 min
- Cc1nn(-c2ccc(C(=O)N3CCN(C)CC3)cc2)c(=O)c2ccccc12 — within 1.5-fold, 8.65 min
- CC(=O)C(C)(C)N — within 1.5-fold, 5.58 min
- CN1CCCN=C1C=Cc1cccs1 — within 1.5-fold, 8.55 min
- O=C(O)CC1C(=O)Nc2ccccc21 (stereo not given) — within 1.5-fold, 7.72 min
- CCN1CN(Cc2ccccc2)CNC1=S — 1.6-fold higher, 10.8 min
- CN(C)c1ccc(C=NNC(=O)c2cccc(N)c2)cc1 — within 1.5-fold, 9.41 min
- CN(c1nc(-c2ccc(C(C)(C)C)cc2)nc2ccccc12)C1CCCCC1 — 2.3-fold higher, 15.8 min
- O=c1[nH][nH]c(=O)c2nccnc12 — 1.7-fold lower, 3.97 min
- CCCCN(C)CCCC — within 1.5-fold, 8.6 min
- O=C(O)CCCC(=O)Nc1ccccc1 — within 1.5-fold, 8.72 min
- c1ccc2[nH]cnc2c1 — within 1.5-fold, 7.09 min
- CNCCCCCCNC — within 1.5-fold, 7.03 min
- CN1c2ccccc2CCc2cc(C=O)ccc21 — 2.4-fold higher, 16.3 min
- CN(C)Cc1c(N)cc2ccccc2c1-c1ccccc1 — within 1.5-fold, 8.82 min
- Nc1ccccc1C(=O)NN=C1CCCC1 — within 1.5-fold, 10.1 min
